The source of these data is PubChem BioAssay (NCI).

Among the test systems are IGROV1 ovarian; DLD-1 colon; RXF 393 renal; M19-MEL melanoma; HCC-2998 colon; SN12C renal; K-562 leukemia; U251 CNS; KM12 colon; SF-268 CNS; RPMI-8226 leukemia; HCT-15 colon; CCRF-CEM leukemia; CAKI-1 renal; DMS 273 small cell lung; SK-MEL-28 melanoma; HOP-62 NSCLC; NCI-H23 lung; COLO 205 colon; OVCAR-5 ovarian.
What all share (assay): DTP human tumour cell line panel, 48 h

Each structure is given as a SMILES string.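 Interpolation was linear, between the two tested concentrations surrounding the appropriate level; five concentrations were tested over 48 hours in 96-well plates. TGI is the concentration that stops growth completely.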 Where a SMILES comes first, the peptide text is derived from it. [ ]: non-standard residue; d: D form. The star is where a group is joined. Boc = CC(C)(C)OC(=O)*; Lac = C[CH](O)C(=O)O; OBn = c1ccc(CO*)cc1

With `N/C(=N\N=C/c1ccc(O)c(O)c1O)NO`, the TGI (usually the concentration at which net growth stops) in the test on IGROV1 ovarian is more than 100 µM; in the test with DLD-1 colon it was 51.2 µM; in the test on RXF 393 renal, 33.5 µM; in the test with M19-MEL melanoma, 48.1 µM; with HCC-2998 colon it was 96.6 µM; in the test with SN12C renal it was 34.9 µM. Besides, the TGI in the test with K-562 leukemia is 48 µM; in the test with U251 CNS it was more than 83.6 µM; with KM12 colon, 72.5 µM; in the test on SF-268 CNS it was more than 100 µM; in the test with RPMI-8226 leukemia it was more than 100 µM; in the test with HCT-15 colon, 34.5 µM. Besides, the TGI with CCRF-CEM leukemia is more than 58.1 µM; in the test with CAKI-1 renal, 55.3 µM; in the test on DMS 273 small cell lung, 18.5 µM; in the test with SK-MEL-28 melanoma, more than 100 µM; with HOP-62 NSCLC, more than 56.4 µM; in the test with NCI-H23 lung, 68.4 µM. The figures for the TGI in the test with COLO 205 colon and in the test on OVCAR-5 ovarian were 17.6 µM and more than 73.6 µM, respectively.

`O=C1N(Cl)C(=O)C(c2ccc(Cl)cc2)(c2ccc(Cl)cc2)N1Cl`: the TGI in the test on IGROV1 ovarian was more than 100 µM; in the test with DLD-1 colon, more than 100 µM; in the test on RXF 393 renal it was 84.8 µM; in the test on M19-MEL melanoma, more than 100 µM; in the test with HCC-2998 colon it was more than 100 µM; in the test with SN12C renal it was more than 100 µM. In addition, the concentration for total growth inhibition (TGI) in the test with K-562 leukemia, with U251 CNS, in the test on KM12 colon, in the test with SF-268 CNS, in the test on RPMI-8226 leukemia and in the test with HCT-15 colon was more than 100 µM throughout. Also, the TGI in the test with CCRF-CEM leukemia was 60.9 µM; in the test with CAKI-1 renal it was more than 100 µM; in the test on DMS 273 small cell lung, more than 100 µM; with SK-MEL-28 melanoma, more than 100 µM; in the test with NCI-H23 lung, more than 100 µM; in the test on COLO 205 colon, more than 100 µM.

For the compound `NC(CCCCCCCCCCP(=O)(O)O)C(=O)O` (stereo unspecified), the concentration for total growth inhibition (TGI) in the test with IGROV1 ovarian, with RXF 393 renal, in the test with HCC-2998 colon, in the test on SN12C renal, in the test on K-562 leukemia and in the test with U251 CNS was more than 100 µM each time. The total growth inhibition concentration (TGI) in the test with KM12 colon, with RPMI-8226 leukemia, in the test on HCT-15 colon, with CCRF-CEM leukemia, with CAKI-1 renal and with SK-MEL-28 melanoma was more than 100 µM each time. The TGI with NCI-H23 lung, in the test with COLO 205 colon and in the test on OVCAR-5 ovarian was more than 100 µM each time.

As for `CC(OC(=O)C(Cc1ccccc1)NC(=O)C(Cc1ccccc1)NC(=O)OC(C)(C)C)C(=O)OCc1ccccc1` (stereo not drawn) (Boc-Phe-Phe-[Lac]-OBn; configuration not given here), the TGI with IGROV1 ovarian, with RXF 393 renal, in the test with HCC-2998 colon, in the test on SN12C renal, in the test on K-562 leukemia and in the test with U251 CNS was more than 100 µM each time. The TGI in the test with KM12 colon, in the test on RPMI-8226 leukemia, in the test on HCT-15 colon, in the test on CCRF-CEM leukemia, with CAKI-1 renal and in the test with SK-MEL-28 melanoma was more than 100 µM in each case. Further, the TGI in the test with HOP-62 NSCLC, in the test with NCI-H23 lung, in the test on COLO 205 colon and in the test on OVCAR-5 ovarian was more than 100 µM throughout.

On to `CC1(C)CCc2ccc(OCCC(=O)O)cc2O1`, for which the TGI in the test with IGROV1 ovarian, with DLD-1 colon, in the test with M19-MEL melanoma, with SN12C renal, in the test with K-562 leukemia and in the test on U251 CNS was more than 100 µM throughout. Further, the TGI in the test on KM12 colon, in the test with SF-268 CNS, with RPMI-8226 leukemia, in the test with HCT-15 colon, with CCRF-CEM leukemia and with CAKI-1 renal was more than 100 µM in each case. For the same compound, the TGI in the test on DMS 273 small cell lung, with HOP-62 NSCLC, in the test with NCI-H23 lung, in the test on COLO 205 colon and in the test on OVCAR-5 ovarian was more than 100 µM each time.
